Source: US20150011541A1, “PIPECOLATE-SULFONAMIDES FOR TREATMENT OF PSYCHIATRIC DISORDERS” (Max-Planck-Gesellschaft zur Förderung der Wissenschaften …, priority 2011, published 2015)
Read-outs that look alike come from different tables or passages of the source.

Columns and labels:
human FKBP52FK1 = biological target: T1, human FKBP52FK1 (Homo sapiens, UniProt Q02790); assay: Fluorescence polarization assay, binding to FK1 domain of FKBP52; conditions: for IC50: binding affinity, fluorescence polarization assay; for inhibition at 5 µM: read-out: FKBP52 FK1 % inhibition
T1 sequence (Q02790 50-138 limits assumed): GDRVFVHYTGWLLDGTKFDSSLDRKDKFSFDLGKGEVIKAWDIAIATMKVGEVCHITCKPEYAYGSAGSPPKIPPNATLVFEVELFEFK

human FKBP51FK1 = biological target: T2, human FKBP51FK1 (Homo sapiens, UniProt Q13451); assay: Fluorescence polarization assay, binding to FK1 domain of FKBP51; conditions: for IC50: binding affinity, fluorescence polarization assay; for inhibition at 5 µM: read-out: FKBP 51 FK1 % inhibition
T2 sequence (Q13451 42-130 limits assumed): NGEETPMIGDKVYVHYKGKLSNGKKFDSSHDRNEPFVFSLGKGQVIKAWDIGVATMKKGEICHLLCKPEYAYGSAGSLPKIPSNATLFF

[1] = at a concentration of 5 μM, library testing

Compound | inhibition at 5 µM (human FKBP52FK1; [1]) | inhibition at 5 µM (human FKBP51FK1; [1]) | other results
O=C(OCCCc1cccnc1)C1CCCCN1S(=O)(=O)c1cccc([N+](=O)[O-])c1 (stereo not drawn) [Ref. 4, 3-(pyridin-3-yl)propyl 1-(3-nitrophenylsulfonyl)piperidine-2-carboxylate, reference compound] | – | – | IC50 (human FKBP52FK1): > 100 µM; IC50 (human FKBP51FK1): > 100 µM
COc1ccc(CC[C@@H](OC(=O)[C@@H]2CCCCN2S(=O)(=O)c2ccc(-c3ccccc3)nc2)c2cccc(OCC(=O)O)c2)cc1OC [Compound 44, 2-(3-((R)-3-(3,4-dimethoxyphenyl)-1-((S)-1-(6-phenylpyridin-3-ylsulfonyl)piperidine-2-carbonyloxy)propyl)phenoxy)acetic acid] | 8.5% | 2.6% | –
COc1ccc(CC[C@@H](OC(=O)[C@@H]2CCCCN2S(=O)(=O)c2cc3ccccc3o2)c2cccc(OCC(=O)O)c2)cc1OC [Compound 54, 2-(3-((R)-1-((S)-1-(benzofuran-2-ylsulfonyl)piperidine-2-carbonyloxy)-3-(3,4-dimethoxyphenyl)propyl)phenoxy)acetic acid] | 6.6% | 5.5% | –
2-(3-((R)-1-((S)-1-(benzo[d]thiazol-5-ylsulfonyl)piperidine-2-carbonyloxy)-3-(3,4-dimethoxy phenyl)propyl)phenoxy)acetic acid [Compound 3] | – | – | FKBP52 FK1 % inhibition (human FKBP52FK1; [1]): 16.1%; IC50 (human FKBP52FK1): 32.5 ± 3.5 µM; FKBP 51 FK1 % inhibition (human FKBP51FK1; [1]): 25.5%; IC50 (human FKBP51FK1): 11.6 ± 1.1 µM
COc1ccc(CC[C@@H](OC(=O)[C@@H]2CCCCN2S(=O)(=O)c2c(Cl)cccc2Cl)c2cccc(OCC(=O)O)c2)cc1OC [Compound 46, 2-(3-((R)-1-((S)-1-(2,6-dichlorophenylsulfonyl)piperidine-2-carbonyloxy)-3-(3,4-dimethoxyphenyl)propyl)phenoxy)acetic acid] | 9.5% | 3.2% | –
COc1ccc(CC[C@@H](OC(=O)[C@@H]2CCCCN2S(=O)(=O)c2ccc(Oc3ccccc3)cc2)c2cccc(OCC(=O)O)c2)cc1OC [Compound 41, 2-(3-((R)-3-(3,4-dimethoxyphenyl)-1-((S)-1-(4-phenoxyphenylsulfonyl)piperidine-2-carbonyloxy)propyl)phenoxy)acetic acid] | 15.2% | 7.2% | –
COc1ccc(CC[C@@H](OC(=O)[C@@H]2CCCCN2S(=O)(=O)c2cccc3c2ccn3C)c2cccc(OCC(=O)O)c2)cc1OC [Compound 49, 2-(3-((R)-3-(3,4-dimethoxyphenyl)-1-((S)-1-(1-methyl-1H-indol-4-ylsulfonyl)piperidine-2-carbonyloxy)propyl)phenoxy)acetic acid] | 6.6% | -0.8% | –
COc1ccc(CC[C@@H](OC(=O)[C@@H]2CCCCN2S(=O)(=O)c2cccs2)c2cccc(OCC(=O)O)c2)cc1OC [Compound 55, 2-(3-((R)-3-(3,4-dimethoxyphenyl)-1-((S)-1-(thiophen-2-ylsulfonyl)piperidine-2-carbonyloxy)propyl)phenoxy)acetic acid] | 8.5% | 3.2% | –
COc1ccc(CC[C@@H](OC(=O)[C@@H]2CCCCN2S(=O)(=O)c2ccc(C)cc2)c2cccc(OCC(=O)O)c2)cc1OC [Compound 63, 2-(3-((R)-3-(3,4-dimethoxyphenyl)-1-((S)-1-tosylpiperidine-2-carbonyloxy)propyl)phenoxy)acetic acid] | – | – | inhibition at 5 µM (human FKBP52FK1): 3.8%; inhibition at 5 µM (human FKBP51FK1): 3.2%
2-(3-((R)-1-((S)-1-(3-cyanophenylsulfonyl)piperidine-2-carbonyloxy)-3-(3,4-dimethoxyphen-yl)propyl)phenoxy)acetic acid [Compound 6] | – | – | IC50 (human FKBP52FK1): 69.9 ± 65.4 µM; IC50 (human FKBP51FK1): 28.5 ± 9.6 µM
COc1ccc(CC[C@@H](OC(=O)[C@@H]2CCCCN2S(=O)(=O)c2ccccc2Cl)c2cccc(OCC(=O)O)c2)cc1OC [Compound 45, 2-(3-((R)-1-((S)-1-(2-chlorophenylsulfonyl)piperidine-2-carbonyloxy)-3-(3,4-dimethoxyphenyl)propyl)phenoxy)acetic acid] | 9.5% | 1.4% | –
